We go through twelve compounds from ChEMBL document CHEMBL4765394, “From irreversible to reversible covalent inhibitors: Harnessing the andrographolide scaffold for anti-inflammatory action” (Eur J Med Chem, 2020).

Activity calls are given as the source filed them. No cut-off for these calls is given here. Bounds are passed on as bounds.

As usually defined, the CC50 is the concentration at which the toxic effect on the cells reaches its halfway point.

System in one data set: not listed separately
The experiment in a line: Aqueous stability of compound. The settings on record: buffer. The class given is physicochemical.
On to `C=C1CC[C@@H]2[C@](C)(CO)[C@H](O)CC[C@@]2(C)[C@@H]1C/C=C1\SC(=S)NC1=O`, for which the Stabilty entry was “Stable”.
On to `C=C1CC[C@@H]2[C@](C)(CO)[C@H](O)CC[C@@]2(C)[C@@H]1C/C=C1\SC(=O)NC1=O`, for which the Stabilty result is “Stable”.
As to `C=C1CC[C@@H]2[C@](C)(CO)[C@H](O)CC[C@@]2(C)[C@@H]1C/C=C1\C[C@@H](OC)OC1=O`, the Stabilty result is on record as “Stable”.
`C=C1CC[C@@H]2[C@](C)(CO)[C@H](O)CC[C@@]2(C)[C@@H]1C/C=C\C#N`: the Stabilty entry was “Stable”.
As for `C=C1CC[C@@H]2[C@](C)(CO)[C@H](O)CC[C@@]2(C)[C@@H]1C/C=C/C(=O)OCC`, the Stabilty entry was “Stable”.
On the same count and under the same terms, the result for `C=C1CC[C@@H]2[C@](C)(CO)[C@H](O)CC[C@@]2(C)[C@@H]1C/C=C1\C[C@H](OC)OC1=O` reads “Stable”; that for `C=C1CC[C@@H]2[C@](C)(CO)[C@H](O)CC[C@@]2(C)[C@@H]1C/C=C/C#N`, “Stable”.
Consider `C[C@H]1CC[C@@H]2[C@](C)(CO)[C@H](O)CC[C@@]2(C)[C@@H]1CC[C@@H]1C(=O)OC[C@H]1O`, for which the Stabilty entry is listed as “Stable”.
The same measure, in the same setting: for `C=C1CC[C@@H]2[C@](C)(CO)[C@H](O)CC[C@@]2(C)[C@@H]1C/C=C1\CCOC1=O` the value was “Stable”.

Another data set deals with RAW264.7. The experiment in a line: Cytotoxicity against BSO-treated mouse RAW264.7 cells assessed as reduction cell viability measured after 24 hrs by Celltiter-glo assay. Format: cell-based. The settings on record: raw264.7, 24 h, dose 10-20 µM.
Take `C=C1CC[C@@H]2[C@](C)(CO)[C@H](O)CC[C@@]2(C)[C@@H]1C/C=C1\CCOC1=O`: the CC50 was over 30 µM.

The target of a further data set is T1, Nuclear factor NF-kappa-B p105 subunit (Homo sapiens) (UniProt P19838).
T1 sequence (whole entry): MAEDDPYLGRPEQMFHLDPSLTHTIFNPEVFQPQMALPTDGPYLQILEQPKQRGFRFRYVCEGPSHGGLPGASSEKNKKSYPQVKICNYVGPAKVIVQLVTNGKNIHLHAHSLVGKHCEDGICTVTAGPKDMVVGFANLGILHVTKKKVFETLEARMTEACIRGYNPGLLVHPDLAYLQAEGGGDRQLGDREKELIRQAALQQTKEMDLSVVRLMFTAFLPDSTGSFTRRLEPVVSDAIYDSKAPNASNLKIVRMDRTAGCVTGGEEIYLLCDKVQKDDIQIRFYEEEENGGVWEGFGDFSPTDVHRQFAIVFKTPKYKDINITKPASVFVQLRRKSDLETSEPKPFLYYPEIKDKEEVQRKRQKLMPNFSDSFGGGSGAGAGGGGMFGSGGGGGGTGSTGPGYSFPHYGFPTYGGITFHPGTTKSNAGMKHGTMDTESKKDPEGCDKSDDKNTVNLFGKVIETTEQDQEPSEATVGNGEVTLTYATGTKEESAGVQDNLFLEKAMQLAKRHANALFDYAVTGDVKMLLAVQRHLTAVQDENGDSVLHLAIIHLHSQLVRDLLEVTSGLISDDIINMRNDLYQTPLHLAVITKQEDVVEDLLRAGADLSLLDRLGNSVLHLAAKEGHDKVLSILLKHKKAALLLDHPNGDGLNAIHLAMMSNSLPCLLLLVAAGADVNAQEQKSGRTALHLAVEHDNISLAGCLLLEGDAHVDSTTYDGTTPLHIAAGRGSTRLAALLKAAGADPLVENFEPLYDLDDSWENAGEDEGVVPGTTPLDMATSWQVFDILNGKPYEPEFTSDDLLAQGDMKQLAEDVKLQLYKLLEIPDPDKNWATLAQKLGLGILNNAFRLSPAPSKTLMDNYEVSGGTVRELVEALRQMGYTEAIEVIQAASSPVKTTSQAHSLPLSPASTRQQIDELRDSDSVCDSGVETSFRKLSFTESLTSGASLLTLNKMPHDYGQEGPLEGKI
In words: Inhibition of DNA binding activity of human NF-kappaB p50 at 200 uM measured after 1 hr by ELISA.
Conditions: not given
On the technique in general: ELISA stands for enzyme-linked immunosorbent assay.
Take `CC(=O)CCC[C@@H]1[C@@H](C)CC[C@@H]2[C@](C)(CO)[C@H](O)CC[C@]21C`: the inhibition entry is “inactive”.
As for `C=C1CC[C@@H]2[C@](C)(CO)[C@H](O)CC[C@@]2(C)[C@@H]1C/C=C/C(C)O` (stereo not given in full), the inhibition entry is “inactive”.

For a further data set, the system named is RAW264.7. In words: Antiinflammatory activity in mouse RAW264.7 cells assessed as inhibition of LPS-induced IL6 release at 5 to 10 uM preincubated for 1 hr followed by LPS stimulation and measured after 24 hrs by ELISA. The class given is functional, cell-based. Conditions: dose 5-10 µM, time 25.0 hrs.
Turning to `C=C1CC[C@@H]2[C@](C)(CO)[C@H](O)CC[C@@]2(C)[C@@H]1C/C=C1\SC(=S)NC1=O`, the inhibition entry is “inactive”.
For `C=C1CC[C@@H]2[C@](C)(CO)[C@H](O)CC[C@@]2(C)[C@@H]1C/C=C1\SC(=O)NC1=O`, the inhibition result is “inactive”.
Same read-out and setting: the result for `C=C1CC[C@@H]2[C@](C)(CO)[C@H](O)CC[C@@]2(C)[C@@H]1C/C=C1\C[C@@H](OC)OC1=O` reads “inactive”; that for `C=C1CC[C@@H]2[C@](C)(CO)[C@H](O)CC[C@@]2(C)[C@@H]1C/C=C\C#N`, “inactive”.
As for `C=C1CC[C@@H]2[C@](C)(CO)[C@H](O)CC[C@@]2(C)[C@@H]1C/C=C/C(=O)OCC`, the inhibition result is “inactive”.
On to `C=C(CO)C(=O)OC`, for which the inhibition entry was “inactive”.
For the compound `C=C1CC[C@@H]2[C@](C)(CO)[C@H](O)CC[C@@]2(C)[C@@H]1C/C=C1\C[C@H](OC)OC1=O`, the inhibition result is “inactive”.
For the compound `C=C1CC[C@@H]2[C@](C)(CO)[C@H](O)CC[C@@]2(C)[C@@H]1C/C=C/C#N`, the inhibition result was “inactive”.
On the same count and under the same terms, the result for `C[C@H]1CC[C@@H]2[C@](C)(CO)[C@H](O)CC[C@@]2(C)[C@@H]1CC[C@@H]1C(=O)OC[C@H]1O` reads “inactive”; that for `C=C1CC[C@@H]2[C@](C)(CO)[C@H](O)CC[C@@]2(C)[C@@H]1C/C=C1\CCOC1=O`, “inactive”.

Another data set has as its system RAW264.7. In words: Cytotoxicity against mouse RAW264.7 cells assessed as reduction cell viability at 5 to 50 uM measured after 24 hrs by Celltiter-glo assay. The class given is cell-based. The settings on record: raw264.7, 24 h, dose 5-50 µM. For orientation: In ATP-based viability assays light output follows the ATP content of the culture.
For the compound `C=C1CC[C@@H]2[C@](C)(CO)[C@H](O)CC[C@@]2(C)[C@@H]1C/C=C1\SC(=S)NC1=O`, the Activity entry is reported as “Non-Toxic”.
With `C=C1CC[C@@H]2[C@](C)(CO)[C@H](O)CC[C@@]2(C)[C@@H]1C/C=C1\SC(=O)NC1=O`, the Activity result is reported as “Non-Toxic”.

The next data set concerns RAW264.7. The experiment in a line: Antiinflammatory activity in mouse RAW264.7 cells assessed as inhibition of LPS-induced TNFalpha release at 5 to 10 uM preincubated for 1 hr followed by LPS stimulation and measured after 4 hrs by ELISA. Format: functional, cell-based. Conditions: dose 5-10 µM, time 5.0 hrs.
Take `C=C1CC[C@@H]2[C@](C)(CO)[C@H](O)CC[C@@]2(C)[C@@H]1C/C=C1\SC(=S)NC1=O`: the inhibition entry was “inactive”.
On to `C=C1CC[C@@H]2[C@](C)(CO)[C@H](O)CC[C@@]2(C)[C@@H]1C/C=C/C(=O)OCC`, for which the inhibition result was “inactive”.
Turning to `C=C(CO)C(=O)OC`, the inhibition entry was “inactive”.
Same read-out and setting: for `C=C1CC[C@@H]2[C@](C)(CO)[C@H](O)CC[C@@]2(C)[C@@H]1C/C=C/C#N` the value was “inactive”; for `C[C@H]1CC[C@@H]2[C@](C)(CO)[C@H](O)CC[C@@]2(C)[C@@H]1CC[C@@H]1C(=O)OC[C@H]1O`, “inactive”.
`C=C1CC[C@@H]2[C@](C)(CO)[C@H](O)CC[C@@]2(C)[C@@H]1C/C=C1\CCOC1=O`: the inhibition entry is “inactive”.
